Data as given in PubChem BioAssay AID743464 (Broad Institute, 2014).
Active and inactive are the calls of the source.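 How the source made its calls: active means fitted curve of COX8b expression increase reaching level 40 at or below the top valid tested dose; inconclusive means flat fit between 30 and 70, or poor fit; inactive means the rest.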

Test system: C2C12 myotubes, COX8b mRNA qPCR (delta-delta-Ct)
Test: change in PGC-1a target gene COX8b expression, dose response, C2C12 myotubes, RT-qPCR, cherry-pick (AID 743464)
Settings: not given

| SMILES | AC40 |
| --- | --- |
| CCn1nc(/C=C/c2ccccc2)nc2c(=O)n(C)c(=O)nc1-2 | 0.78 µM |
| O=C(Nc1cccc(F)c1)N1CC(=O)N2[C@@H](CO)[C@@H](c3ccc(C#Cc4cccnc4)cc3)[C@@H]2C1 | > 19.5 µM (inactive) |
| O=C(Nc1ccc(N2CCN(Cc3ccccc3F)CC2)cc1)c1ccc([N+](=O)[O-])o1 | 10.4 µM |
| Cc1ccc(-c2ccc(C3[C@@H]4CN(C(=O)Nc5ccc(C(F)(F)F)cc5)C[C@H]3N4)cc2)cc1 (some centres undefined) | > 19.5 µM (inactive) |
| CCCN(CC)c1ncnc2[nH]ncc12 | 17.5 µM |
| COc1ccccc1C#Cc1ccc2c(c1)O[C@@H](CN(C)Cc1cccnc1)[C@H](C)CN([C@H](C)CO)S2(=O)=O | > 19.5 µM (inactive) |
| Cc1ccc(S(=O)(=O)N(C)C[C@H]2Oc3cc(C#Cc4ccncc4)ccc3S(=O)(=O)N([C@H](C)CO)C[C@H]2C)cc1 | 19.3 µM |
| C=CS(=O)(=O)N(Cc1ccccc1Br)[C@H](CO)Cc1ccccc1 | > 19.5 µM (inactive) |
| Cc1cccc(NC(=O)CNC(=O)Cn2ncc(Cl)c(Cl)c2=O)c1C | > 19.5 µM (inactive) |
| N#Cc1ccc(-c2ccc(C3[C@@H]4CN(S(=O)(=O)c5ccc(F)cc5)C[C@H]3N4)cc2)cc1 (some centres undefined) | > 19.5 µM (inactive) |
| CCOC(=O)c1c2c(n(C)c1C)C(=O)C(=O)c1ccc(Br)cc1-2 | 16.8 µM |
| O=C(Nc1ccc(C(F)(F)F)cc1)N1C[C@@H]2N[C@H](C1)C2c1ccc(-c2ccccc2)cc1 (some centres undefined) | > 19.5 µM (inactive) |
| COc1ccccc1-c1ccc([C@@H]2[C@@H]3CN(S(=O)(=O)c4ccc(-c5ccccc5)cc4)C[C@H]2N3)cc1 | > 19.5 µM (inactive) |
| Cc1ccc(Cn2ncc(Cl)c(Cl)c2=O)cc1 | > 19.5 µM (inactive) |
| Cc1ccc(S(=O)(=O)N(C)C[C@@H]2Oc3cc(C#Cc4ccncc4)ccc3S(=O)(=O)N([C@H](C)CO)C[C@H]2C)cc1 | > 19.5 µM (inactive) |
| Cc1ccc(S(=O)(=O)N(C)C[C@@H]2Oc3cc(C#Cc4ccncc4)ccc3S(=O)(=O)N([C@@H](C)CO)C[C@H]2C)cc1 | > 19.5 µM (inactive) |

Test system: not listed separately
Test: as above
Settings: C2C12 myotubes, COX8b mRNA qPCR (delta-delta-Ct); at 6.8 µM (top of the series)

| SMILES | COX8b expression increase |
| --- | --- |
| N#Cc1cc(Oc2cccc3cccnc23)c(-n2nnc3ccccc32)cc1C#N | -21.9 unspecified (inactive) |

Same assay, conditions: C2C12 myotubes, COX8b mRNA qPCR (delta-delta-Ct); at 19.5 µM (top of the series)

| SMILES | COX8b expression increase |
| --- | --- |
| C[C@H](CO)N1C[C@H](C)[C@@H](CN(C)Cc2cccnc2)Oc2cc(C#CC3CCCCC3)ccc2S1(=O)=O | 0.89 unspecified (inactive) |
| C[C@H](CO)N1C[C@H](C)[C@@H](CN(C)C(=O)C2CCCCC2)Oc2cc(C#Cc3ccncc3)ccc2S1(=O)=O | 9.62 unspecified (inactive) |
| COC(=O)c1nn(-c2ccccc2)ccc1=O | 3.82 unspecified (inactive) |
| CCN(CC(=O)NCc1ccc(Cl)cc1)C(=O)CSCC(=O)Nc1ccc(C)cc1 | 0.86 unspecified (inactive) |
| C[C@H]1CN([C@@H](C)CO)S(=O)(=O)c2ccc(-c3ccccc3)cc2O[C@@H]1CN(C)Cc1cccc(F)c1 | -3.3 unspecified (inactive) |
| O=c1[nH]c2ccccc2n1C1CCN(C(c2cc3ccccc3o2)c2nnnn2Cc2ccccc2)CC1 (centres undefined) | 12.6 unspecified (inactive) |
| O=c1cc(CSc2ccccn2)[nH]c(=O)[nH]1 | -6.81 unspecified (inactive) |
| CCN1CCN(Cc2ccc(NC(=O)c3cc(NC(=O)c4cncc(-c5ccc(C#N)cc5)c4)cc(OC)c3)cc2C(F)(F)F)CC1 | -3 unspecified (inactive) |
| O=C(C[C@H]1CC[C@@H](NC(=O)c2ccccc2)[C@H](CO)O1)Nc1ccc(-c2ccccc2)cc1 | -12.4 unspecified (inactive) |
| CC[C@H](C)[C@H](NC(=O)c1ccc(Cl)cc1)C(=O)OCC(=O)c1ccc2c(c1)NC(=O)CO2 | -1.89 unspecified (inactive) |
| COCCSc1ccccc1C(=O)Nc1cc(C)on1 | 3.36 unspecified (inactive) |
| Cc1cc(C)cc(OC(=O)CS(=O)c2ccc(C(F)(F)F)cc2[N+](=O)[O-])c1 (centres undefined) | -6.23 unspecified (inactive) |
| Cc1nc(Nc2ccc(S(N)(=O)=O)cc2)sc1C(=O)Nc1ccccc1 | -1.19 unspecified (inactive) |
| CC1=C(Cl)C2=NS(=O)(=O)CCN2C=C1Cl | 6.22 unspecified (inactive) |
| Cc1ccc(-c2nc(NC(=O)c3nn(C)cc3[N+](=O)[O-])sc2C)cc1 | 8.83 unspecified (inactive) |
| COc1ccc(C(=O)Nc2cccc(NC(=O)c3ccc(OC)c(OC)c3)n2)cc1OC | 7.85 unspecified (inactive) |
| CS(=O)c1nc(-c2ccc(Br)cc2)cc(-c2ccccc2)c1C#N (centres undefined) | 6.29 unspecified (inactive) |
| OC(c1cc(C(F)(F)F)nc2c(C(F)(F)F)cccc12)C1CCCCN1 (centres undefined) | 1.68 unspecified (inactive) |
| Cc1cc2c(c(/C=C/C(=O)c3ccccc3)c1)OC1(C=C2)Oc2ccccc2C(=O)N1C (centres undefined) | 21.7 unspecified (inactive) |
| COc1ccccc1C#Cc1ccc([C@H]2[C@H](C#N)N(C(=O)C3CCCC3)[C@H]2CO)cc1 | 21.2 unspecified (inactive) |
| CCN1CCN(Cc2ccc(NC(=O)c3ccc(C)c(NC(=O)c4c[nH]c5cc(C(F)(F)F)ccc5c4=O)c3)cc2C(F)(F)F)CC1 | 15.7 unspecified (inactive) |
| CCOc1cc(CNC2CCCC2)cc(Cl)c1OCc1ccc(F)cc1 | 0.737 unspecified (inactive) |
| Cn1nnnc1SCC(=O)NCc1cccc(C(=O)O)c1 | -7.14 unspecified (inactive) |
| Cc1nc2ccccn2c1C(=O)/C=C/c1ccc(F)cc1 | -3.59 unspecified (inactive) |
| Nc1ncnc(NCc2ccc(F)cc2)c1[N+](=O)[O-] | 1.72 unspecified (inactive) |
| C#CCN(C[C@@H]1[C@@H](OC(=O)NCCCCCC)[C@@H](OC(=O)NCCCCCC)Cn2c(=O)ccc(=O)n21)S(=O)(=O)c1ccc(C)cc1 | 4.23 unspecified (inactive) |
| Cc1ccccc1-n1nnnc1Sc1nnnn1-c1ccccc1 | 9.68 unspecified (inactive) |
